Laboratory results taken from ChEMBL document CHEMBL5050826, “Compositions and methods for treating Friedreich's ataxia” (2019).
Active and inactive are the calls of the source. The rule behind the calls is not given here.

Assays:
[1] = test system: Flp-In-293; experiment: Induction of frataxin accumulation in human Flp-In-293 cells stably expressing frataxin at 10 uM assessed as increase in frataxin levels measured after 24 hrs by Western blot analysis; type: functional, cell-based
[2] = target: T1, Frataxin, mitochondrial (Homo sapiens) (UniProt Q16595); experiment: Inhibition of frataxin ubiquitination in human HEK293 cells transiently co-transfected with HA-Ub and frataxin at 10 uM and measured after 48 hrs by Western blot analysis; type: cell-based
T1 sequence (whole entry): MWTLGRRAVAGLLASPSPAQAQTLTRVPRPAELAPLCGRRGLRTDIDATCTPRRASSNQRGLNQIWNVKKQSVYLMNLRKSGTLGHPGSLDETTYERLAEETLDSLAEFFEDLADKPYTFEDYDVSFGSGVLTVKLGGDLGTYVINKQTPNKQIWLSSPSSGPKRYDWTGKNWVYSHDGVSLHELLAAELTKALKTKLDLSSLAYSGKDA

[3] = test system: Flp-In-293; experiment: Induction of frataxin accumulation in human Flp-In-293 cells stably expressing frataxin K147R mutant at 10 uM assessed as increase in frataxin levels measured after 24 hrs by Western blot analysis; type: functional, cell-based
[4] = test system: Lymphocyte; experiment: Induction of frataxin accumulation in human FRDA-patient isolated lymphocyte at 10 uM assessed as increase in frataxin levels measured by Western blot analysis; type: functional, cell-based
[5] = test system: Flp-In-293; experiment: Induction of frataxin accumulation in human Flp-In-293 cells stably expressing frataxin at 10 uM assessed as increase in frataxin levels measured after 72 hrs by Western blot analysis; type: functional, cell-based
[6] = target: T1, Frataxin, mitochondrial (Homo sapiens); experiment: Inhibition of recombinant frataxin (unknown origin) precursor degradation assessed as half-saturation binding constant (L1/2) and measured by fluorescence based assay
[7] = test system: Lymphocyte; experiment: Induction of frataxin accumulation in human FRDA-patient isolated lymphocyte at 1 uM assessed as increase in frataxin levels measured after 4 days by Western blot analysis; type: functional, cell-based; settings: time 4.0 day
[8] = test system: Lymphocyte; experiment: Rescue of aconitase activity in human FRDA-patient isolated lymphocyte at 10 uM […]; type: functional, cell-based

| SMILES | Activity [1] | inhibition [2] | Activity [3] | Activity [4] | Activity [5] | K1/2 [6] [µM] | Activity [7] | Activity [8] |
| --- | --- | --- | --- | --- | --- | --- | --- | --- |
| C/C(=N\NC(=O)c1ccc(C)cc1C)c1ccc2c(c1)Nc1ccccc1S2 | Active | Active | inactive | Active | Active | 2.9 |  |  |
| C/C(=N\NC(=O)c1cc2ccccc2cc1O)c1ccc2c(c1)Nc1ccccc1S2 | Active | Active | inactive |  |  |  |  |  |
| COc1ccccc1C(=O)N/N=C(\C)c1ccc2c(c1)Nc1ccccc1S2 |  |  |  |  |  |  | Active |  |
| C/C(=N\NC(=O)c1ccccc1)c1ccc2c(c1)Nc1ccccc1S2 | Active |  | inactive | Active | Active | 2.3 |  | Active |
